From patent publication US20080051438A1, “Preventive/Therapeutic Compositions Useful for Treating Cardiovascular Diseases” (priority 2006, published 2008)

Key:
Assay type in all cases: in vivo, human
hypertensive patients [1] = test: Special investigation of combined use of cilnidipine and ARB: degree of the blood pressure controls judged by the doctor (efficacy ratio); design: concentration or dose not given beside the values; conditions: named ARB alone, then cilnidipine additionally administered, kind of ARB unchanged; blood pressure control in the 12th week
Method: (§1) A special investigation was conducted in various medical centers, compiled, and analyzed to evaluate the safety and availability of the combined use of cilnidipine and at least one angiotensin II receptor blocker.
(§2) The subjects of the investigation were hypertensive patients which were adapted to cilnidipine. Combined administration of cilnidipine and ARB was started for the treatment of hypertension in these patients.
(§3) A prospective continuous investigation method was conducted. Such a method is continuously conducted with the registered cases with the combined administration of cilnidipine (Atelec®) and ARB, until the number of cases reaches the contracted cases for each center.
(§4) Regarding the administration method of cilnidipine, 5 to 10 mg of cilnidipine was orally administered after breakfast once a day. Meanwhile, the amount may increase or decrease depending on patient's age, symptoms, or the like. When the effect is insufficient, the amount can be increased to 20 mg once a day. The dosing period of cilnidipine was set to 12 weeks in principle.
(§5) The following items were tracked during the investigation: patient's background (sex), existence or nonexistence of previous therapeutic agents and the content thereof, targeted blood pressure (systolic BP/diastolic BP), the conditions of administration of cilnidipine and ARB, antihypertensives used in combination (those other than cilnidipine or ARB), clinical course (systolic BP/diastolic BP/heart rate), and occurrence of side-effects. As for the availability of the combined administration, in the 12th week after starting the combined administration, the doctor in attendance judged the degree of the blood pressure controls on a three-point scale of “well-controlled”, “nearly well-controlled” and “poorly-controlled”, referring to the changes in the systolic and diastolic BP. As for the safety and availability analysis for each patient background, Fisher's exact probability test or the X^2 test was used. As for the blood pressure and heart rate, the average value and the standard deviation were calculated for the subjects before the combined administration (within 4 weeks before starting the combined administration), and data after starting the combined administration were determined on each observation day, and analysis was conducted by using a paired t-test. The test was conducted as the two-sided test and less than 5% of the risk rate was regarded as significant. Furthermore, side-effects were compiled based on the naming of preferred terms (PT) of MedDRA/J ver 8.0.
As the index of availability, in the 12th week after starting the combined administration, the doctor in attendance judged the degree of the blood pressure controls on a three-point scale of “well-controlled”, “nearly well-controlled” and “poorly-controlled”.
(1) Among the 2919 cases in the availability analysis, 42 cases in which the degree of the blood pressure controls was not described, and 168 cases which could not be judged, were excluded. In the other 2709 cases, the ratio of number of cases judged as “nearly well-controlled” or higher was calculated as the efficacy ratio. Accordingly, the efficacy ratio of the subject cases in the availability analysis was 84.8% (2298 cases/2709 cases).

hypertensive patients [2] = test: Special investigation of combined use of cilnidipine and ARB: changes in systolic and diastolic blood pressure
Method: as §1, §2, §3, §4, §5
Table 7 and FIG. 2 show the number of cases for which the blood pressure was measured, and the changes in the measured values of systolic BP, diastolic BP, and heart rate were measured at the following time points: before starting the combined administration, 4 weeks, 8 weeks, and 12 weeks after starting the combined administration, and the last measurement, […] administration, n=2919). […] Then, it continued to slowly decrease, and the a stable change was seen up to 12 weeks after the start.

hypertensive patients [3] = test: Special investigation of combined use of cilnidipine and ARB: changes in heart rate; conditions: for heart rate (beat/min.) last meas., ave.: named ARB + 10 mg cilnidipine after switch from 5 mg amlodipine, 12 weeks or later to the last measurement; for heart rate (beat/min.) last meas.: named ARB + cilnidipine 10 mg, last measurement; for heart rate (beat/min.) last meas. / heart rate (beat/min.) start. admin., ave. / heart rate (beat/min.) start admin.: doses unchanged; for heart rate (beat/min.) 12th wk aft admin.: named ARB + cilnidipine only, 12 weeks after starting the combined administration; for heart rate (beat/min.) start. admin., ave.: on named ARB + 5 mg amlodipine, at switch of amlodipine to 10 mg cilnidipine; for heart rate (beat/min.) start admin.: on named ARB alone (candesartan 8, valsartan 80, losartan 50, telmisartan 40 mg) at start of adding cilnidipine 10 mg; for heart rate (beat/min.) upon start. admin.: on named ARB alone, before cilnidipine was additionally administered
Method: as §1, §2, §3, §4, §5
Table 7 and FIG. 2 show the number of cases for which the blood pressure was measured, and the changes in the measured values of systolic BP, diastolic BP, and heart rate were measured at the following time points: before starting the combined administration, 4 weeks, 8 weeks, and 12 weeks after starting the combined administration, and the last measurement, which was 222.43 days in average from the start of the combined administration, n=2919). […] Then, it continued to slowly decrease, and the a stable change was seen up to 12 weeks after the start.

[4] = named ARB + 10 mg cilnidipine after switch from 5 mg amlodipine, 12 weeks or later to the last measurement
[5] = named ARB + cilnidipine 10 mg, doses unchanged, last measurement, 211.43 ± 133.43 day after starting the combined use
[6] = named ARB + cilnidipine only, 12 weeks after starting the combined administration
[7] = on named ARB + 5 mg amlodipine, at switch of amlodipine to 10 mg cilnidipine, doses unchanged
[8] = on named ARB alone (candesartan 8, valsartan 80, losartan 50, telmisartan 40 mg) at start of adding cilnidipine 10 mg, doses unchanged
[9] = on named ARB alone, before cilnidipine was additionally administered

SMILES | efficacy ratio (%) (hypertensive patients [1]) | diastolic BP (hypertensive patients [2]; [4]) [mmHg] | systolic BP (hypertensive patients [2]; [4]) [mmHg] | diastolic BP (hypertensive patients [2]; [5]) [mmHg] | systolic BP (hypertensive patients [2]; [5]) [mmHg] | diastolic BP (hypertensive patients [2]; [6]) [mmHg] | systolic BP (hypertensive patients [2]; [6]) [mmHg] | diastolic BP (hypertensive patients [2]; [7]) [mmHg] | systolic BP (hypertensive patients [2]; [7]) [mmHg] | diastolic BP (hypertensive patients [2]; [8]) [mmHg] | systolic BP (hypertensive patients [2]; [8]) [mmHg] | diastolic BP (hypertensive patients [2]; [9]) [mmHg] | systolic BP (hypertensive patients [2]; [9]) [mmHg] | heart rate (beat/min.) last meas., ave. (hypertensive patients [3]) [beat/min.] | heart rate (beat/min.) last meas. (hypertensive patients [3]) [beat/min.] | heart rate (beat/min.) 12th wk aft admin. (hypertensive patients [3]) [beat/min.] | heart rate (beat/min.) start. admin., ave. (hypertensive patients [3]) [beat/min.] | heart rate (beat/min.) start admin. (hypertensive patients [3]) [beat/min.] | heart rate (beat/min.) upon start. admin. (hypertensive patients [3]) [beat/min.]
CCOc1nc2cccc(C(=O)O)c2n1Cc1ccc(-c2ccccc2-c2nnn[nH]2)cc1 [candesartan] | 85.5 | 78.58 | 140.96 | 79.81 ± 12.72 | 141.02 ± 17.36 | 79.81 ± 12.72 | 141.29 ± 17.02 | 82.90 | 152.10 | 89.59 ± 14.80 | 164.98 ± 16.35 | 89.59 ± 14.80 | 163.78 ± 17.52 | 72.58 | 72.47 ± 11.14 | 72.66 ± 11.86 | 75.54 | 74.19 ± 10.96 | 75.14 ± 11.48
CCCCc1nc(Cl)c(CO)n1Cc1ccc(-c2ccccc2-c2nn[nH]n2)cc1 [losartan] | 89.8 | 79.78 | 138.22 | 79.32 ± 9.82 | 137.74 ± 15.19 | 79.45 ± 9.20 | 139.52 ± 14.43 | 82.00 | 150.35 | 90.40 ± 10.35 | 161.84 ± 16.13 | 88.67 ± 9.91 | 160.78 ± 14.13 | 72.44 | 73.66 ± 9.49 | 73.95 ± 7.68 | 72.00 | 74.13 ± 8.98 | 73.81 ± 8.29
CCCc1nc(C(C)(C)O)c(C(=O)O)n1Cc1ccc(-c2ccccc2-c2nnn[nH]2)cc1 [olmesartan] | 100.0 |  |  |  |  |  |  |  |  |  |  |  |  |  |  |  |  |  | 
CCCc1nc2c(C)cc(-c3nc4ccccc4n3C)cc2n1Cc1ccc(-c2ccccc2C(=O)O)cc1 [telmisartan] | 88.0 | 83.08 | 147.23 | 80.49 ± 12.78 | 138.89 ± 15.89 | 80.70 ± 11.71 | 143.64 ± 12.53 | 86.15 | 155.00 | 93.52 ± 10.84 | 163.00 ± 17.32 | 90.94 ± 12.27 | 161.33 ± 12.62 | 71.00 | 72.12 ± 9.42 | 73.09 ± 9.29 | 70.00 | 74.24 ± 11.55 | 74.95 ± 12.70
CCCCC(=O)N(Cc1ccc(-c2ccccc2-c2nnn[nH]2)cc1)[C@H](C(=O)O)C(C)C [valsartan] | 86.0 | 80.74 | 140.67 | 80.62 ± 10.40 | 140.75 ± 15.61 | 79.31 ± 10.42 | 138.32 ± 14.28 | 89.36 | 158.15 | 91.43 ± 11.20 | 160.65 ± 16.04 | 91.50 ± 10.58 | 160.65 ± 15.20 | 75.86 | 72.89 ± 10.20 | 71.65 ± 9.38 | 77.18 | 74.08 ± 10.41 | 73.22 ± 9.51
